Assay results taken from patent US10681909B2, “Herbicidal triazoles” (FMC Corporation, priority 2014, dated 2020).

What was measured:
pigweed [1] = experiment: Test C postemergence; assay type: in vivo, Amaranthus retroflexus
Excerpt: (§1) Seeds of plant species selected from blackgrass (Alopecurus myosuroides), ryegrass, Italian (Italian ryegrass, Lolium multiflorum), wheat (winter wheat, Triticum aestivum), galium (catchweed bedstraw, Galium aparine), corn (Zea mays), crabgrass, large (large crabgrass, Digitaria sanguinalis), foxtail, giant, (giant foxtail, Setaria faberii), johnsongrass (Sorghum halepense), lambsquarters (Chenopodium album), morningglory (Ipomoea coccinea), nutsedge, yellow (yellow nutsedge, Cyperus esculentus), pigweed (Amaranthus retroflexus), ragweed (common ragweed, Ambrosia elatior), soybean (Glycine max), barnyardgrass (Echinochloa crus-galli), oilseed rape (Brassica napus), waterhemp (common waterhemp, Amaranthus rudis), and velvetleaf (Abutilon theophrasti) were planted into a blend of loam soil and sand and treated preemergence with test chemicals formulated in a non-phytotoxic solvent mixture which included a surfactant. At the same time, plants selected from these crop and weed species and also chickweed (common chickweed, Stellaria media), oat, wild (wild oat, Avena fatua), and kochia (Kochia scoparia), were planted in pots containing Sunshine Redi-Earth® planting medium comprising spaghnum peat moss, vermiculite, starter nutrients and dolomitic limestone and treated with postemergence applications of test chemicals formulated in the same manner. Plants ranged in height from 2 to 18 cm (1- to 4-leaf stage) for postemergence treatments. […] A dash (-) response means no test result.

ragweed = experiment: Test C postemergence; assay type: in vivo, Ambrosia elatior
Excerpt: as §1

barnyardgrass [2] = experiment: Test A postemergence; assay type: in vivo, Echinochloa crus-galli; conditions: 0 to 100 scale (0 no effect, 100 complete control), approx. 10 d
Procedure, shortened: (§2)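 Pre- and postemergence spray tests in a loam soil–sand mixture: seeded soil received a directed spray, while established seedlings 2–10 cm high at the one- to two-leaf stage were treated over the top. Compounds were carried in non-phytotoxic solvent with surfactant.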

foxtail, giant [3] = experiment: Test C postemergence; assay type: in vivo, Setaria faberii
Excerpt: as §1

pigweed [4] = experiment: Test A preemergence; assay type: in vivo, Amaranthus retroflexus; conditions: 0 to 100 scale (0 no effect, 100 complete control)
Procedure, shortened: as §2

chickweed = experiment: Test C postemergence; assay type: in vivo, Stellaria media
Excerpt: as §1

blackgrass = experiment: Test C postemergence; assay type: in vivo, Alopecurus myosuroides
Excerpt: as §1

velvetleaf = experiment: Test C postemergence; assay type: in vivo, Abutilon theophrasti
Excerpt: as §1

barnyardgrass [5] = experiment: Test C postemergence; assay type: in vivo, Echinochloa crus-galli
Excerpt: as §1

wheat (winter wheat) = experiment: Test C postemergence; assay type: in vivo, Triticum aestivum
Excerpt: as §1

corn = experiment: Test A postemergence; assay type: in vivo, Zea mays; conditions: 0 to 100 scale (0 no effect, 100 complete control), approx. 10 d
Procedure, shortened: as §2

kochia = experiment: Test C postemergence; assay type: in vivo, Kochia scoparia
Excerpt: as §1

johnsongrass = experiment: Test C postemergence; assay type: in vivo, Sorghum halepense
Excerpt: as §1

nutsedge, yellow = experiment: Test C postemergence; assay type: in vivo, Cyperus esculentus
Excerpt: as §1

oilseed rape = experiment: Test C postemergence; assay type: in vivo, Brassica napus
Excerpt: as §1

rice = experiment: Test B flooded paddy test; assay type: in vivo, Oryza sativa; conditions: 250 g ai/ha, applied to paddy water at 2-leaf stage, visual rating after 13 to 15 d, scale 0 (no effect) to 100 (complete control)
Procedure, shortened: (§3)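 Pots were flooded to 3 cm above the soil at treatment, and compounds were applied directly into the paddy water. That depth was held throughout. After 13 to 15 d in a greenhouse, plants were rated visually against untreated controls.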

ducksalad = experiment: Test B flooded paddy test; assay type: in vivo, Heteranthera limosa; conditions: 250 g ai/ha, applied to paddy water at 2-leaf stage, visual rating after 13 to 15 d, scale 0 (no effect) to 100 (complete control)
Procedure, shortened: as §3

oat, wild = experiment: Test C postemergence; assay type: in vivo, Avena fatua
Excerpt: as §1

foxtail, giant [6] = experiment: Test A postemergence; assay type: in vivo, Setaria faberii; conditions: 0 to 100 scale (0 no effect, 100 complete control), approx. 10 d
Procedure, shortened: as §2

ryegrass, Italian = experiment: Test C postemergence; assay type: in vivo, Lolium multiflorum
Excerpt: as §1

Compound: CCOc1nc(-c2ccccc2)nn1Cc1ccnc(C(F)(F)F)c1 [Compound 27]
- Plant response rating (scale of 0 to 100 where 0 is no effect and 100 is complete control) (pigweed [1]; 31 g ai/ha): 85
- Plant response rating (scale of 0 to 100 where 0 is no effect and 100 is complete control) (pigweed [1]; 62 g ai/ha): 85
- Plant response rating (scale of 0 to 100 where 0 is no effect and 100 is complete control) (pigweed [1]; 125 g ai/ha): 95
- Plant response rating (scale of 0 to 100 where 0 is no effect and 100 is complete control) (pigweed [1]; 250 g ai/ha): 95
- Plant response rating (scale of 0 to 100 where 0 is no effect and 100 is complete control) (ragweed; 31 g ai/ha): 55
- Plant response rating (scale of 0 to 100 where 0 is no effect and 100 is complete control) (ragweed; 62 g ai/ha): 60
- Plant response rating (scale of 0 to 100 where 0 is no effect and 100 is complete control) (ragweed; 125 g ai/ha): 25
- Plant response rating (scale of 0 to 100 where 0 is no effect and 100 is complete control) (ragweed; 250 g ai/ha): 70
- Plant response rating, Barnyardgrass (barnyardgrass [2]; 125 g ai/ha): 90
- Plant response rating, Barnyardgrass (barnyardgrass [2]; 500 g ai/ha): 90
- Plant response rating (scale of 0 to 100 where 0 is no effect and 100 is complete control) (foxtail, giant [3]; 31 g ai/ha): 5
- Plant response rating (scale of 0 to 100 where 0 is no effect and 100 is complete control) (foxtail, giant [3]; 62 g ai/ha): 10
- Plant response rating (scale of 0 to 100 where 0 is no effect and 100 is complete control) (foxtail, giant [3]; 125 g ai/ha): 10
- Plant response rating (scale of 0 to 100 where 0 is no effect and 100 is complete control) (foxtail, giant [3]; 250 g ai/ha): 15
- Plant response rating, Pigweed (pigweed [4]; 125 g ai/ha): 100
- Plant response rating, Pigweed (pigweed [4]; 500 g ai/ha, approx. 10 d): 100
- Plant response rating (scale of 0 to 100 where 0 is no effect and 100 is complete control) (chickweed; 31 g ai/ha): 95
- Plant response rating (scale of 0 to 100 where 0 is no effect and 100 is complete control) (chickweed; 62 g ai/ha): 90
- Plant response rating (scale of 0 to 100 where 0 is no effect and 100 is complete control) (chickweed; 125 g ai/ha): 90
- Plant response rating (scale of 0 to 100 where 0 is no effect and 100 is complete control) (chickweed; 250 g ai/ha): 90
- Plant response rating (scale of 0 to 100 where 0 is no effect and 100 is complete control) (blackgrass; 31 g ai/ha): 10
- Plant response rating (scale of 0 to 100 where 0 is no effect and 100 is complete control) (blackgrass; 62 g ai/ha): 15
- Plant response rating (scale of 0 to 100 where 0 is no effect and 100 is complete control) (blackgrass; 125 g ai/ha): 35
- Plant response rating (scale of 0 to 100 where 0 is no effect and 100 is complete control) (blackgrass; 250 g ai/ha): 50
- Plant response rating (scale of 0 to 100 where 0 is no effect and 100 is complete control) (velvetleaf; 31 g ai/ha): 45
- Plant response rating (scale of 0 to 100 where 0 is no effect and 100 is complete control) (velvetleaf; 62 g ai/ha): 50
- Plant response rating (scale of 0 to 100 where 0 is no effect and 100 is complete control) (velvetleaf; 125 g ai/ha): 60
- Plant response rating (scale of 0 to 100 where 0 is no effect and 100 is complete control) (velvetleaf; 250 g ai/ha): 70
- Plant response rating (scale of 0 to 100 where 0 is no effect and 100 is complete control) (barnyardgrass [5]; 31 g ai/ha): 10
- Plant response rating (scale of 0 to 100 where 0 is no effect and 100 is complete control) (barnyardgrass [5]; 62 g ai/ha): 15
- Plant response rating (scale of 0 to 100 where 0 is no effect and 100 is complete control) (barnyardgrass [5]; 125 g ai/ha): 25
- Plant response rating (scale of 0 to 100 where 0 is no effect and 100 is complete control) (barnyardgrass [5]; 250 g ai/ha): 55
- Plant response rating (scale of 0 to 100 where 0 is no effect and 100 is complete control) (wheat (winter wheat); 31 g ai/ha): 5
- Plant response rating (scale of 0 to 100 where 0 is no effect and 100 is complete control) (wheat (winter wheat); 62 g ai/ha): 5
- Plant response rating (scale of 0 to 100 where 0 is no effect and 100 is complete control) (wheat (winter wheat); 125 g ai/ha): 5
- Plant response rating (scale of 0 to 100 where 0 is no effect and 100 is complete control) (wheat (winter wheat); 250 g ai/ha): 15
- Plant response rating, Corn (corn; 125 g ai/ha): 60
- Plant response rating, Corn (corn; 500 g ai/ha): 70
- Plant response rating (scale of 0 to 100 where 0 is no effect and 100 is complete control) (kochia; 31 g ai/ha): 95
- Plant response rating (scale of 0 to 100 where 0 is no effect and 100 is complete control) (kochia; 62 g ai/ha): 95
- Plant response rating (scale of 0 to 100 where 0 is no effect and 100 is complete control) (kochia; 125 g ai/ha): 95
- Plant response rating (scale of 0 to 100 where 0 is no effect and 100 is complete control) (kochia; 250 g ai/ha): 95
- Plant response rating (scale of 0 to 100 where 0 is no effect and 100 is complete control) (johnsongrass; 31 g ai/ha): 5
- Plant response rating (scale of 0 to 100 where 0 is no effect and 100 is complete control) (johnsongrass; 62 g ai/ha): 45
- Plant response rating (scale of 0 to 100 where 0 is no effect and 100 is complete control) (johnsongrass; 125 g ai/ha): 100
- Plant response rating (scale of 0 to 100 where 0 is no effect and 100 is complete control) (nutsedge, yellow; 31 g ai/ha): 5
- Plant response rating (scale of 0 to 100 where 0 is no effect and 100 is complete control) (nutsedge, yellow; 62 g ai/ha): 5
- Plant response rating (scale of 0 to 100 where 0 is no effect and 100 is complete control) (nutsedge, yellow; 125 g ai/ha): 10
- Plant response rating (scale of 0 to 100 where 0 is no effect and 100 is complete control) (nutsedge, yellow; 250 g ai/ha): 10
- Plant response rating (scale of 0 to 100 where 0 is no effect and 100 is complete control) (oilseed rape; Oilsee Rape, 250 g ai/ha): 90
- Plant response rating (scale of 0 to 100 where 0 is no effect and 100 is complete control) (oilseed rape; Oilseed Rape, 31 g ai/ha): 90
- Plant response rating (scale of 0 to 100 where 0 is no effect and 100 is complete control) (oilseed rape; Oilseed Rape, 62 g ai/ha): 90
- Plant response rating (scale of 0 to 100 where 0 is no effect and 100 is complete control) (oilseed rape; Oilseed Rape, 125 g ai/ha): 90
- Plant response rating, Rice, Flood (rice): 30
- Plant response rating, Ducksalad, Flood (ducksalad): 90
- Plant response rating (scale of 0 to 100 where 0 is no effect and 100 is complete control) (oat, wild; 31 g ai/ha): 10
- Plant response rating (scale of 0 to 100 where 0 is no effect and 100 is complete control) (oat, wild; 62 g ai/ha): 10
- Plant response rating (scale of 0 to 100 where 0 is no effect and 100 is complete control) (oat, wild; 125 g ai/ha): 25
- Plant response rating (scale of 0 to 100 where 0 is no effect and 100 is complete control) (oat, wild; 250 g ai/ha): 40
- Plant response rating, Foxtail, Giant (foxtail, giant [6]; 125 g ai/ha): 90
- Plant response rating, Foxtail, Giant (foxtail, giant [6]; 500 g ai/ha): 100
- Plant response rating (scale of 0 to 100 where 0 is no effect and 100 is complete control) (ryegrass, Italian; 31 g ai/ha): 5
- Plant response rating (scale of 0 to 100 where 0 is no effect and 100 is complete control) (ryegrass, Italian; 62 g ai/ha): 20
- Plant response rating (scale of 0 to 100 where 0 is no effect and 100 is complete control) (ryegrass, Italian; 125 g ai/ha): 30
- Plant response rating (scale of 0 to 100 where 0 is no effect and 100 is complete control) (ryegrass, Italian; 250 g ai/ha): 35
